From the NIST ThermoML archive (doi:10.1021/acs.jced.5b00820) come the findings set out here.

Usually refractive index stands for a measure of how strongly the sample bends light. One may read the mass density as the mass of a sample divided by its volume.

Where “and” joins values, the source holds several entries; their conditions need not be identical. Equal values may be shown once. ± gives the expanded uncertainty stated by the source.

The nature of data set [1]: refractive index (Na D-line) (dimensionless). The settings on record: 102.2 kPa, Liquid, Standard Abbe refractometry.
The conditions of data set [2]: 102.2 kPa, Liquid, Vibrating tube method.
The nature of data set [3]: refractive index (Na D-line) (dimensionless); xn = mol fraction of the nth substance listed. The settings on record: 102.2 kPa, Liquid, Standard Abbe refractometry, x2 = 0.
Data set [4] can be described thus: xn = mol fraction of the nth substance listed. The settings on record: 102.2 kPa, Liquid, Vibrating tube method, x2 = 0.

For the molecule `C[Si]1(C)O[Si](C)(C)O[Si](C)(C)O[Si](C)(C)O1` [octamethylcyclotetrasiloxane], the refractive index in data set [1] (308.15 K) is reported as 1.38924 ± 0.00036; in data set [1] (313.15 K), 1.38671 ± 0.00036; in data set [1] (318.15 K), 1.38419 ± 0.00036; in data set [1] (323.15 K), 1.38168 ± 0.00036; in data set [1] (328.15 K), 1.37916 ± 0.00036. The mass density in data set [2] (308.15 K) is recorded as 938.88 ± 0.22 kg/m3; in data set [2] (313.15 K) it was 933.06 ± 0.22 kg/m3; in data set [2] (318.15 K), 927.34 ± 0.22 kg/m3; in data set [2] (323.15 K), 921.59 ± 0.22 kg/m3; in data set [2] (328.15 K), 915.8 ± 0.22 kg/m3.

For the molecule `C=C[Si]1(C)O[Si](C)(C=C)O[Si](C)(C=C)O[Si](C)(C=C)O1` (stereo not given) [2,4,6,8-tetramethyl-2,4,6,8-tetravinylcycloterasiloxane], the refractive index in data set [1] (308.15 K) is 1.42751 ± 0.00035; in data set [1] (313.15 K), 1.42514 ± 0.00035; in data set [1] (318.15 K), 1.42275 ± 0.00035; in data set [1] (323.15 K), 1.4204 ± 0.0004; in data set [1] (328.15 K) it was 1.41802 ± 0.00035. Also, the mass density in data set [2] (308.15 K) came to 972.64 ± 0.21 kg/m3; in data set [2] (313.15 K), 967.49 ± 0.21 kg/m3; in data set [2] (318.15 K), 962.36 ± 0.21 kg/m3; in data set [2] (323.15 K), 957.2 ± 0.21 kg/m3; in data set [2] (328.15 K), 952.03 ± 0.21 kg/m3.

Consider `C[Si]1(CCC(F)(F)F)O[Si](C)(CCC(F)(F)F)O[Si](C)(CCC(F)(F)F)O1` (stereo not given) + C[Si](C)(O[Si](C)(C)c1ccccc1)c1ccccc1, for which the refractive index in data set [3] (308.15 K) is 1.36015 ± 0.00035; in data set [3] (313.15 K), 1.35814 ± 0.00035; in data set [3] (318.15 K), 1.35614 ± 0.00035; in data set [3] (323.15 K), 1.35413 ± 0.00035; in data set [3] (328.15 K) it was 1.35215 ± 0.00035. In addition, the mass density in data set [4] (308.15 K) was determined as 1236.82 ± 0.23 kg/m3; in data set [4] (313.15 K), 1230.2 ± 0.23 kg/m3; in data set [4] (318.15 K) it was 1223.61 ± 0.23 kg/m3; in data set [4] (323.15 K), 1217.06 ± 0.23 kg/m3; in data set [4] (328.15 K) it was 1210.43 ± 0.23 kg/m3.

Take `C=C[Si]1(C)O[Si](C)(C=C)O[Si](C)(C=C)O[Si](C)(C=C)O1` (stereo not given) [2,4,6,8-tetramethyl-2,4,6,8-tetravinylcycloterasiloxane] + C[Si](C)(O[Si](C)(C)c1ccccc1)c1ccccc1: the refractive index was determined as 1.42751 ± 0.00035 in data set [3] (308.15 K); 1.42514 ± 0.00035 in data set [3] (313.15 K); 1.42275 ± 0.00035 in data set [3] (318.15 K); 1.4204 ± 0.0004 in data set [3] (323.15 K); 1.41802 ± 0.00035 in data set [3] (328.15 K). Besides, the mass density in data set [4] (308.15 K) turned out to be 972.64 ± 0.21 kg/m3; in data set [4] (313.15 K) it was 967.49 ± 0.21 kg/m3; in data set [4] (318.15 K) it was 962.36 ± 0.21 kg/m3; in data set [4] (323.15 K), 957.2 ± 0.21 kg/m3; in data set [4] (328.15 K), 952.03 ± 0.21 kg/m3.

With `C=C[Si](C)(C)O[Si](C)(C)C=C` [1,3-diethenyl-1,1,3,3-tetramethyldisiloxane] + C[Si](C)(O[Si](C)(C)c1ccccc1)c1ccccc1, the refractive index came to 1.40445 ± 0.00036 in data set [3] (308.15 K); 1.40178 ± 0.00036 in data set [3] (313.15 K); 1.39912 ± 0.00036 in data set [3] (318.15 K); 1.39644 ± 0.00036 in data set [3] (323.15 K); 1.39378 ± 0.00036 in data set [3] (328.15 K). The mass density in data set [4] (308.15 K) is reported as 797.99 ± 0.23 kg/m3; in data set [4] (313.15 K), 793.04 ± 0.23 kg/m3; in data set [4] (318.15 K), 788.05 ± 0.24 kg/m3; in data set [4] (323.15 K), 783.06 ± 0.24 kg/m3; in data set [4] (328.15 K), 778.04 ± 0.24 kg/m3.

Take `C=C[Si](C)(C)O[Si](C)(C)C=C` [1,3-diethenyl-1,1,3,3-tetramethyldisiloxane]: the refractive index in data set [1] (308.15 K) came to 1.40445 ± 0.00036; in data set [1] (313.15 K), 1.40178 ± 0.00036; in data set [1] (318.15 K), 1.39912 ± 0.00036; in data set [1] (323.15 K) it was 1.39644 ± 0.00036; in data set [1] (328.15 K), 1.39378 ± 0.00036. Besides, the mass density in data set [2] (308.15 K) is reported as 797.99 ± 0.23 kg/m3; in data set [2] (313.15 K), 793.04 ± 0.23 kg/m3; in data set [2] (318.15 K), 788.05 ± 0.24 kg/m3; in data set [2] (323.15 K), 783.06 ± 0.24 kg/m3; in data set [2] (328.15 K), 778.04 ± 0.24 kg/m3.

Regarding `C[Si]1(CCC(F)(F)F)O[Si](C)(CCC(F)(F)F)O[Si](C)(CCC(F)(F)F)O1` (stereo not given), the refractive index was 1.36015 ± 0.00035 in data set [1] (308.15 K); 1.35814 ± 0.00035 in data set [1] (313.15 K); 1.35614 ± 0.00035 in data set [1] (318.15 K); 1.35413 ± 0.00035 in data set [1] (323.15 K); 1.35215 ± 0.00035 in data set [1] (328.15 K). In addition, the mass density in data set [2] (308.15 K) is 1236.82 ± 0.23 kg/m3; in data set [2] (313.15 K), 1230.2 ± 0.23 kg/m3; in data set [2] (318.15 K), 1223.61 ± 0.23 kg/m3; in data set [2] (323.15 K), 1217.06 ± 0.23 kg/m3; in data set [2] (328.15 K), 1210.43 ± 0.23 kg/m3.

Regarding `C[Si]1(C)O[Si](C)(C)O[Si](C)(C)O[Si](C)(C)O1` [octamethylcyclotetrasiloxane] + C[Si](C)(O[Si](C)(C)c1ccccc1)c1ccccc1, the refractive index in data set [3] (308.15 K) is reported as 1.38924 ± 0.00036; in data set [3] (313.15 K), 1.38671 ± 0.00036; in data set [3] (318.15 K), 1.38419 ± 0.00036; in data set [3] (323.15 K), 1.38168 ± 0.00036; in data set [3] (328.15 K), 1.37916 ± 0.00036. For the same molecule, the mass density in data set [4] (308.15 K) is reported as 938.88 ± 0.22 kg/m3; in data set [4] (313.15 K), 933.06 ± 0.22 kg/m3; in data set [4] (318.15 K), 927.34 ± 0.22 kg/m3; in data set [4] (323.15 K), 921.59 ± 0.22 kg/m3; in data set [4] (328.15 K) it was 915.8 ± 0.22 kg/m3.

As to `C[Si](C)(O[Si](C)(C)c1ccccc1)c1ccccc1` [1,3-diphenyltetramethyldisiloxane], the refractive index is 1.51064 ± 0.00035 [middle of 4 runs] in data set [1] (308.15 K); 1.50832 ± 0.00035 [middle of 4 runs] in data set [1] (313.15 K); 1.50605 ± 0.00035 [middle of 4 runs] in data set [1] (318.15 K); 1.50377 ± 0.00035 [middle of 4 runs] in data set [1] (323.15 K); 1.50144 ± 0.00035 [middle of 4 runs] in data set [1] (328.15 K). In addition, the mass density in data set [2] (308.15 K) was 968.05 ± 0.21 kg/m3 and 967.99 ± 0.21 kg/m3 and 967.9 ± 0.21 kg/m3; in data set [2] (313.15 K), 963.92 ± 0.21 kg/m3 [middle of 4 runs]; in data set [2] (318.15 K), 959.8 ± 0.21 kg/m3 [middle of 4 runs]; in data set [2] (323.15 K), 955.69 ± 0.21 kg/m3 [middle of 4 runs]; in data set [2] (328.15 K), 951.57 ± 0.21 kg/m3 and 951.58 ± 0.21 kg/m3 and 951.65 ± 0.21 kg/m3.
